# Article PMC6100113, “Involvement of CYP4F2 in the Metabolism of a Novel Monophosphate Ester Prodrug of Gemcitabine and Its Interaction Potential In Vitro” (Molecules : A Journal of Synthetic Chemistry and Natural …, 2018)
# Assays:
# Format in all cases: in vitro ADME
# CYP3A4 = molecular target: T1, CYP3A4 (Homo sapiens, UniProt P08684); test: Reaction phenotyping with recombinant CYP3A4; details: recombinant CYP3A4 50 nM, 1 μM, NADPH
# T1 construct: purchased Corning Gentest
# Experimental: (§1) Compound-3 was incubated separately with human cDNA-expressed cytochrome P450s (CYP1A2, CYP2B6, CYP2C8, CYP2C9, CYP2C19, CYP2D6, CYP3A4, CYP4A11, CYP4F2 and CYP4F3). The incubation mixtures contained individual CYP isoenzymes (50 nM), potassium phosphate buffer (100 mM, pH 7.4), NADPH (1 mM), and Compound-3 (1 µM). The final volume of the incubation mixture was 50 µL. Before the start of the incubation, reaction mixtures were warmed up at 37 °C for 10 min. The reaction was initiated with the addition of NADPH and the incubations were performed at 37 °C in a water bath. After 60 min of incubation, the reactions were terminated with an equal volume of ice-cold acetonitrile containing the internal standard. Control samples without NADPH but substrates were included. The samples were then centrifuged and aliquots of 10 μL of the supernatants were transferred onto LC-MS/MS for the analysis of Compound-3 and M4 (carboxylic acid) levels.
# CYP4F2 [1] = molecular target: T2, CYP4F2 (Homo sapiens, UniProt P78329); test: Reaction phenotyping with recombinant CYP4F2; details: recombinant CYP4F2 50 nM, 1 μM, NADPH, after 30 min incubation
# T2 construct: purchased Corning Gentest
# T2 sequence (P78329 5-520): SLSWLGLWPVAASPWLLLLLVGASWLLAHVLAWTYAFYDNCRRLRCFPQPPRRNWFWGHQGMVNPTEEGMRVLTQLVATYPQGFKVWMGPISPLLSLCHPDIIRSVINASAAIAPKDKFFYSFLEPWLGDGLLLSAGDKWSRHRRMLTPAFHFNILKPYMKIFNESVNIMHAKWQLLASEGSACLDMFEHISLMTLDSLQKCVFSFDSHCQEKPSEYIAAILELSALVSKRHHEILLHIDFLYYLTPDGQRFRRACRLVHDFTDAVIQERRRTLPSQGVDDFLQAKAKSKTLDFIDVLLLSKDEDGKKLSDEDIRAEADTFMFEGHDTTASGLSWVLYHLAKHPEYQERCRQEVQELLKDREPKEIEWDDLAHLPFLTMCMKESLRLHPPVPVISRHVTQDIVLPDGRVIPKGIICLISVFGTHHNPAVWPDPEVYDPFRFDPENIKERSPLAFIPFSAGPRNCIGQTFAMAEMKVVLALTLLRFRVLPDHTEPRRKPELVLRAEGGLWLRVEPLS
# Experimental: as §1, with “After 60 min of incubation, the reactions were terminated with an equal volume of ice-cold acetonitrile containing the internal standard.” left out
# The following are available online. Figure S1. Gemcitabine Formation from Compound-3 Hydrolysis as a function of alkaline phosphatase protein concentrations. Compound-3 (1 μM) was incubated with alkaline phosphatase concentrations ranging from 0.01–0.2 mg/mL at 37 °C (n = 3). Figure S2. Metabolites of Compound-3 in human recombinant CYP4F2. Compound-3 (1 μM) was incubated with human recombinant CYP4F2 (50 nM) in the presence of NADPH at 37 °C (n = 3).
# CYP4F2 [2] = molecular target: T2, CYP4F2; test: Formation kinetics of M4 (carboxylic acid) from Compound-3 by CYP4F2; details: CYP4F2 10 nM, 10 min, uncompetitive substrate inhibition equation, estimated
# Experimental: To investigate the formation kinetics of carboxylic acid metabolite (M4) from Compound-3, varying concentrations of Compound-3 (0–10 µM) were incubated with 10 nM CYP4F2 and 1 mM NADPH in 100 mM phosphate buffer (pH 7.4). The reactions were carried at 37 °C for 10 min and terminated with the addition of ice-cold acetonitrile containing the internal standard. Samples were then centrifuged, and aliquots of 10 μL of the supernatants were analyzed by LC-MS/MS for M4 levels.
# Kinetic parameters of Compound-3 in recombinant human CYP4F2 were calculated using Enzyme Kinetics Modules of SigmaPlot (Version 14.0, Systat Software, San Jose, CA, USA). An uncompetitive substrate inhibition equation was also used:V = (Vmax × [S])/{Km + [S] × (1 + [S]/Ki)}(2) where Ki is the disassociation constant describing the inhibitor-enzyme interaction.
# [3] = Stability in human plasma; details: 1 μM, 37 °C
# Experimental: For stability testing in plasma, the reaction was started with the addition of Compound-3 (1 µM). At specified time points, aliquots of 25 µL of the reaction mixtures were transferred into 100 μL ice-cold acetonitrile containing the internal standard. The samples were then centrifuged, and aliquots of 10 µL of the supernatants were transferred onto LC-MS/MS for the analysis of Compound-3 levels.
# T1 sequence (P08684 whole entry): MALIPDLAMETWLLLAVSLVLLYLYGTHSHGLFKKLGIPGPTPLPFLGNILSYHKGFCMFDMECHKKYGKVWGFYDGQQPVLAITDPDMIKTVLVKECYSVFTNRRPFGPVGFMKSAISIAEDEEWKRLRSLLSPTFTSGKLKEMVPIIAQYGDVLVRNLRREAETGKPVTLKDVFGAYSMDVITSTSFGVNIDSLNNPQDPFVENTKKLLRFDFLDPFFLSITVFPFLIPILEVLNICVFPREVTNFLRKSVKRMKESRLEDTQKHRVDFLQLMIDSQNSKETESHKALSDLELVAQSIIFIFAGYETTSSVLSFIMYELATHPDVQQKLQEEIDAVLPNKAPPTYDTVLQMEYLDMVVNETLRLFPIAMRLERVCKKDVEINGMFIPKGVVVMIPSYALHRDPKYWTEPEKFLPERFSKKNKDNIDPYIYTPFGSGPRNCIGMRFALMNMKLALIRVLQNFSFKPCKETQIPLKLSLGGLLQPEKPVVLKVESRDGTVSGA
smiles,measurement,setting,value
CCCCCCCCCCCCCCCCCCOCCOP(=O)(O)OCC1OC(n2ccc(N)nc2=O)C(F)(F)C1O (stereo not shown) [Compound-3],metabolism of Compound-3 by CYP isozyme,CYP3A4,moderate metabolic activity
same,disappearance of Compound-3 in the presence of CYP isozyme,CYP4F2 [1],barely detectable
same,Ki,CYP4F2 [2],1.2 nM
same,disappearance in plasma,[3],did not display noticeable disappearance
